One data set has as its target human PTH1R (Homo sapiens (Human), UniProt Q03431). Briefly: In vitro cAMP signal activity via the human PTH1R (HKRK-B7 cells). Type of data set: cell-based. Conditions: 100 nM human PTH(1-34) = 100%; for EC20: concentration giving 20% cAMP signaling activity; for EC50: concentration giving 50% cAMP signaling activity. On the procedure:
Measurement of In Vitro cAMP Signal Activity of Compounds Via the Human PTH1R
Human PTH(1-34) and calcitonin were purchased from Peptide Institute, Inc. (Osaka, Japan), dissolved in 10 mM acetic acid to 1 mM and stored in a −80° C. freezer.
Cells were cultured in Dulbecco's modified Eagle's medium (DMEM) supplemented with 10% fetal bovine serum (Hyclone), 100 units/ml penicillin G and 100 μg/ml streptomycin sulfate (Invitrogen Corp) at 37° C. in a humidified atmosphere containing 5% CO2.
cAMP signal transduction analysis utilized LLC-PK1 cells not expressing the PTH1R, and HKRK-B7 cells, that is, LLC-PK1 cells overexpressing the human PTH1R at 9.5×10^5 receptors/cell (Takasu et al., J. Bone. Miner. Res. 14:11-20, 1999).
HKRK-B7 or LLC-PK1 cells were seeded into a 96-well plate at 1×10^5 cells/well and incubated overnight. On the following day, 50 μl of cAMP assay buffer (DMEM, 2 mM IBMX, 0.2 mg/ml bovine serum albumin, 35 mM Hepes-NaOH, pH 7.4) containing human PTH(1-34) or each compound was added and the plate was placed in a 37° C. incubator. The cells were incubated for 20 minutes. After removing the medium, the cells were washed with 100 μl of cAMP assay buffer once. The plate was placed on dry ice powder to freeze the cells and then removed from the dry ice. The cells were lysed with 40 μl of 50 mM HCl and frozen again on dry ice. The amount of intracellular cAMP produced was measured using a commercially available cAMP EIA kit (Biotrack cAMP EIA system, GE health care).
Analyses were performed using a variable gradient S-shaped dose-response curve equation.

Data set [1] can be described thus: Metabolic stability using rat hepatocyte. Type of data set: in vitro ADME. Conditions: for hepatocyte CLint at 1 μM: rat (SD, female) hepatocytes 1×10^6 cells/mL, compound 1 μM, 37° C., read-out: Clearance; for rat hepatocyte metabolic stability compared to Comparative Examples 1, 2, 3, 5, and 6: rat hepatocytes. On the procedure: Examination of Metabolic Stability Using Rat Hepatocyte
Liver cells were prepared from the liver of rats (SD, female) by a collagenase perfusion method. A compound of the Examples or a Comparative Example was added, and this was incubated at 37° C. for a specified amount of time, followed by addition of a reaction-stopping solution. The concentration of the parent compound at each reaction time was measured using LC/MS/MS, and inherent clearance (μL/10^6 cells/min) was calculated from the slope of the reaction time versus residual rate.
Cell concentration: 1×10^6 cells/mL
(§1) Compound concentration: 1 μM
Medium: Williams' medium E
Reaction-stopping solution: acetonitrile/2-propanol (4/6, v/v)

A further data set has as its system TPTX rat model. Nature of the data set: Calcemic action in the TPTX rat model. In kind it is in vivo. Conditions: TPTX rats, oral 30 mg/kg; for change of serum Ca concentration from the Pre-value: up to 24 hours after administration. On the procedure:
Calcemic Action in the TPTX Rat Model
Four-week old female Crl:CD(SD) rats were obtained from Charles River Japan (Atsugi Breeding Center), and were acclimated to standard laboratory conditions of 20-26° C. and 35-75% humidity for one week. The rats were given tap water and were fed ad libitum with standard rodent chow (CE-2) (CLEA Japan, Inc.) containing 1.1% calcium, 1.0% phosphoric acid, and 250 IU/100 g of vitamin D3.
TPTX was performed on five-week old rats. Some of the individuals were subjected to sham operation (Sham). Individuals whose serum Ca concentration was less than 8 mg/dL on four days after the operation were selected for use as TPTX rats. On five days after the operation, the rats were assigned to eight TPTX groups and one Sham group (n=5, each group) based on their body weight and serum Ca concentration measured on four days after the operation. The solvent alone was orally administered to the Sham group and the TPTX-Vehicle group at a volume of 10 mL/kg. Each test article was orally administered individually to each TPTX test article group by dissolving it in a solvent at a dose of 30 mg/10 mL/kg. The solvent composition was 10% dimethylsulfoxide (Wako Pure Chemical Industries, Ltd.), 10% Cremophor EL (Sigma-Aldrich Japan LLC), 20% hydroxypropyl-β-cyclodextrin (Nihon Shokuhin Kako Co., Ltd.), glycine (Wako Pure Chemical Industries, Ltd.); and the pH was adjusted to 10. Immediately before administration of each sample, Pre-blood collection was performed, and blood collection was carried out at 2, 6, 10, and 24 hours after administration to measure the serum Ca concentration. Each blood collection was carried out from the jugular vein under isoflurane inhalation anesthesia.
Serum Ca measurement: Serum obtained by centrifugation from the collected blood was measured by using an automatic analyzer TBA-120FR (Toshiba Medical Systems Corporation).
For statistical analysis of the animal studies, data are shown as mean±standard error (SE). Statistical analysis were performed by unpaired test of the SAS Preclinical Package (Ver. 5.00.010720, SAS Institute Japan, Tokyo, Japan).

A short description of data set [2]: Metabolic stability using human liver microsomes. Type of data set: in vitro ADME. Conditions: pH 7.4; human liver microsomes 0.5 mg/mL, compound 1 μM, NADPH 1 mM, 37° C.; read-out: Clearance. The protocol:
Examination of Metabolic Stability Using Human Liver Microsomes
In 0.1 M phosphate buffer (pH7.4), human liver microsomes were incubated with a compound or a comparative example in the coexistence of NADPH at 37° C. for a specified amount of time. The concentration of the parent compound at each reaction time was measured using LC/MS/MS, and inherent clearance (μL/min/mg protein) was calculated from the slope of the reaction time versus residual rate.
as §1
Reaction time: 0, 5, 15, and 30 minutes

A further data set deals with rat PTH1R (Rattus norvegicus (Rat), UniProt P25961). Briefly: In vitro cAMP signaling activity via the rat PTH1R (LLC-PK46_RATO_PTH1R cells). Conditions: LLC-PK46_RATO_PTH1R cells overexpressing rat PTH1R; for EC20: 20% cAMP signaling activity; for EC50: 50% cAMP signaling activity. Type of data set: cell-based. The text has this: Measurement of the Compounds' In Vitro cAMP Signaling Activity Via the Rat PTH1R
rat PTH1R, sequence (P25961 27-591): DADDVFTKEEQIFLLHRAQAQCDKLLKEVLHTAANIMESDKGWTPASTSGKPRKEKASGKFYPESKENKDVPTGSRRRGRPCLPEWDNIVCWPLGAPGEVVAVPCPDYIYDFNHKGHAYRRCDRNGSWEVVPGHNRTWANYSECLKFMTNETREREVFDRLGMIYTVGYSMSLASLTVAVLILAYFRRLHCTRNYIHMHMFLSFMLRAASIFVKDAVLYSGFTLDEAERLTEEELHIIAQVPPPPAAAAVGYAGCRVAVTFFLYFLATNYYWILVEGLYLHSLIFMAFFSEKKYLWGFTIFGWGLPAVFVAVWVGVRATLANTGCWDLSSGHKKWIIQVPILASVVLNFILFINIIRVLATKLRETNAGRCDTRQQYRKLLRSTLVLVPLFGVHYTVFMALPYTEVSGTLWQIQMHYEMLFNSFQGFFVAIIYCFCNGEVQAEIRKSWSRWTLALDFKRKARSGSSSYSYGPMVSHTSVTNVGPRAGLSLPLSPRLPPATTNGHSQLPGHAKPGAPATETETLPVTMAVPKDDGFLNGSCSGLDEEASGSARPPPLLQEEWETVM
Instead of HKRK-B7 cells, LLC-PK46_RATO_PTH1R cells overexpressing rat PTH1R, which were established at Chugai Pharmaceutical, were used to take measurements in a similar manner to Test Example 1.

human PTH1R, sequence (Q03431 27-593): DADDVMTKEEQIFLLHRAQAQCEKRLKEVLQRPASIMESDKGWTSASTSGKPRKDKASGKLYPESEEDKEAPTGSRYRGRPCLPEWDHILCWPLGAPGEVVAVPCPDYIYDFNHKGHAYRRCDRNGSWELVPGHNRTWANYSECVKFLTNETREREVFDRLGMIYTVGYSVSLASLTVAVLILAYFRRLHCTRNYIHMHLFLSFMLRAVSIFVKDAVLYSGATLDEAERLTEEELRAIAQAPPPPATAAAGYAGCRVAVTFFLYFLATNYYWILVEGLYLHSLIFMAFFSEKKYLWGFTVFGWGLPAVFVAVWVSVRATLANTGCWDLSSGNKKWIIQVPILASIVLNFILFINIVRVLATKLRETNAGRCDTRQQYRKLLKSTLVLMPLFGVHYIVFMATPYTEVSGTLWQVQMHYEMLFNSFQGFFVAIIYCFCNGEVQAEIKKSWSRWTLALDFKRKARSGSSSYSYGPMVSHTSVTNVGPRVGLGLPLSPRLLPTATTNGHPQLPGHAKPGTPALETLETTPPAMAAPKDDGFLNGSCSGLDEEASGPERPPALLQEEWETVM

At human PTH1R, `Cc1cc(N2C(=O)NC(=O)C2(C)C)cc(C)c1CCS(=O)(=O)N1CCC2(CC1)N=C(c1ccc(F)c(OC(F)(F)F)c1)NC2=O` [Compound 1, 1-(4-(2-((2-(4-fluoro-3-(trifluoromethoxy)phenyl)-4-oxo-1,3,8-triazaspiro[4.5]deca-1-en-8-yl)sulfonyl)ethyl)-3,5-dimethylphenyl)-5,5-dimethylimidazolidine-2,4-dione] came in with an EC20 of 1.3 µM and an EC50 of 5.8 µM. In addition, the hepatocyte CLint at 1 μM in data set [1] is 7.6 µL/min/1e6 cells. In addition, in the data set on TPTX rat model, the “achievement of therapeutic target range of serum Ca concentration of 7.6 to 8.8 mg/dL” value (“achievement” for short) is given as “could not be achieved” and the “change of serum Ca concentration from the Pre-value” (“change of serum Ca concentration” below) is “smaller positive changes from the Pre-value”. In data set [2], the microsomal CLint at 1 μM amounted to 21 µL/min/mg.
On human PTH1R, `Cc1cc(N2C(=O)NC(=O)C2(C)C)cc(C)c1CCS(=O)(=O)N1CCC2(CC1)N=C(c1cccc(C(F)(F)F)c1)NC2=O` [Compound 6, 1-(3,5-dimethyl-4-(2-((4-oxo-2-(3-(trifluoromethyl)phenyl)-1,3,8-triazaspiro[4.5]deca-1-en-8-yl)sulfonyl)ethyl)phenyl)-5,5-dimethylimidazolidine-2,4-dione] gave an EC20 of 2.0 µM and an EC50 of 9 µM. Besides, the hepatocyte CLint at 1 μM in data set [1] was 1.4 µL/min/1e6 cells. In the data set on TPTX rat model, the “achievement” value is “achieved the therapeutic target range” and the “change of serum Ca concentration” value was “large positive changes from the Pre-value”. The microsomal CLint at 1 μM in data set [2] turned out to be 29 µL/min/mg.
As for `Cc1cc(N2C(=O)NC(=O)C23CCCC3)cc(C)c1CCS(=O)(=O)N1CCC2(CC1)N=C(c1ccc(OC(F)(F)F)cc1)NC2=O` [Compound 8, 1-(3,5-dimethyl-4-(2-((4-oxo-2-(4-(trifluoromethoxy)phenyl)-1,3,8-triazaspiro[4.5]deca-1-en-8-yl)sulfonyl)ethyl)phenyl)-1,3-diazaspiro[4.4]nonane-2,4-dione], in data set [1], the hepatocyte CLint at 1 μM was determined as 3 µL/min/1e6 cells; the “rat hepatocyte metabolic stability compared to Comparative Examples 1, 2, 3, 5, and 6” value is on record as “increased”. At rat PTH1R, this compound displayed an EC20 of 0.4 µM and a 50% effective concentration (EC50) of 1.9 µM. For the same compound, in the data set on TPTX rat model, the “achievement” value is given as “achieved the therapeutic target range” and the “change of serum Ca concentration” value is “large positive changes from the Pre-value”. Moreover, the “significance of serum Ca change compared to Comparative Examples 1 and 2” value with TPTX rat model (p<0.05) is on record as “statistically significant”. Moreover, the microsomal CLint at 1 μM in data set [2] stood at 35 µL/min/mg.
On human PTH1R, `Cc1cc(N2C(=O)NC(=O)C23COC3)cc(C)c1CCS(=O)(=O)N1CCC2(CC1)N=C(c1ccc(OC(F)(F)F)cc1)NC2=O` [Compound 10, 5-(3,5-dimethyl-4-(2-((4-oxo-2-(4-(trifluoromethoxy)phenyl)-1,3,8-triazaspiro[4.5]deca-1-en-8-yl)sulfonyl)ethyl)phenyl)-2-oxa-5,7-diazaspiro[3.4]octane-6,8-dione] returned an EC20 of 5.0 µM and an EC50 of 21 µM. Further, in data set [1], the hepatocyte CLint at 1 μM was 0.3 µL/min/1e6 cells; the “rat hepatocyte metabolic stability compared to Comparative Examples 1, 2, 3, 5, and 6” value is “increased”. On rat PTH1R, this compound gave an EC20 of 3.0 µM and an EC50 of 12 µM. The microsomal CLint at 1 μM in data set [2] came out at 29 µL/min/mg.
Take `Cc1cc(N2C(=O)NC(=O)C23CC3)cc(C)c1CCS(=O)(=O)N1CCC2(CC1)N=C(c1ccc(OC(F)(F)F)cc1)NC2=O` [Compound 11, 4-(3,5-dimethyl-4-(2-((4-oxo-2-(4-(trifluoromethoxy)phenyl)-1,3,8-triazaspiro[4.5]deca-1-en-8-yl)sulfonyl)ethyl)phenyl)-4,6-diazaspiro[2.4]heptane-5,7-dione]: at human PTH1R, the EC20 came to 1.5 µM and the EC50 is 11 µM. In addition, in data set [1], the “rat hepatocyte metabolic stability compared to Comparative Examples 1, 2, 3, 5, and 6” value is listed as “increased”. At rat PTH1R, this compound returned a concentration for an effect of 20% (EC20) of 0.8 µM and an EC50 of 3.2 µM. Moreover, in data set [2], the microsomal CLint at 1 μM was found to be 19 µL/min/mg.

One may read the EC20 as the point of the concentration-response curve where the effect stands at 20%. Read a high EC20 as a need for much substance. By EC50 is commonly meant the midpoint of the concentration-response curve. Higher therefore signals lower potency in that assay.

Source of the values: patent publication US9428505B2, “Hydantoin derivative” (Chugai Seiyaku Kabushiki Kaisha, priority 2012, dated 2016).
